Reference: ChEMBL document CHEMBL3885861, “Open TG-GATES”

Species: Rattus norvegicus
Assay: Open TG-GATES - Regimen: Single
Assay type: toxicity, organism-based, Sprague-Dawley
Parameters: regimen Single, gender Male, age 6 weeks
Settings: in vivo, ip, 0.001 mg/kg, route intraperitoneal injection, dose 1 ug/Kg, dose level Low; for APTT / Bas / Eos / Fbg / Hb / Ht / Lym / MCH / MCHC / MCV / Mono / Neu / PT / Plat / RBC / Ret / WBC: tissue Blood; for KIDNEY_L / KIDNEY_R / KIDNEY_TOTAL: tissue Kidney; for LIVER: tissue Liver; for A/G / ALP / ALT / AST / BUN / CRE / Ca / Cl / DBIL / GLC / IP / K / LDH / Na / PL / RALB / TBIL / TC / TG / TP / gamma-GTP: tissue Plasma

## H-KGDRLS-OH [TNF-ALPHA]
3 h
  TERMINAL_BW: 199 g
  APTT: 17.8 s
  Bas: 0.4%
  Eos: 0.4%
  Fbg: 267.2 mg/dL
  Hb: 12.9 g/dL
  Ht: 39.8%
  Lym: 65.8%
  MCH: 21.4 pg
  MCHC: 32.4%
  MCV: 65.8 fL
  Mono: 4.2%
  Neu: 28%
  PT: 15.4 s
  Plat: 115.7 x10_4/uL
  RBC: 605.4 x10_4/ul
  Ret: 9.7%
  WBC: 95.8 x10_2/uL
  KIDNEY_L: 0.9 g
  KIDNEY_R: 0.9 g
  KIDNEY_TOTAL: 1.8 g
  LIVER: 9.3 g
  A/G: 0.9
  ALP: 1460 IU/L
  ALT: 47.8 IU/L
  AST: 77.2 IU/L
  BUN: 10.4 mg/dL
  CRE: 0.2 mg/dL
  Ca: 10.8 mg/dL
  Cl: 105.6 meq/L
  DBIL: 0.01 mg/dL
  GLC: 177.2 mg/dL
  IP: 9.8 mg/dL
  K: 4.1 meq/L
  LDH: 69.6 IU/L
  Na: 142 meq/L
  PL: 154.4 mg/dL
  RALB: 2.4 g/dL
  TBIL: 0.056 mg/dL
  TC: 83 mg/dL
  TG: 71.6 mg/dL
  TP: 5.2 g/dL
  gamma-GTP: 1.2 IU/L
6 h
  TERMINAL_BW: 195 g
  APTT: 16.4 s
  Bas: 0%
  Eos: 0.2%
  Fbg: 310.6 mg/dL
  Hb: 12.9 g/dL
  Ht: 39.3%
  Lym: 53.8%
  MCH: 21.1 pg
  MCHC: 32.8%
  MCV: 64.3 fL
  Mono: 2%
  Neu: 43.2%
  PT: 15.3 s
  Plat: 115.3 x10_4/uL
  RBC: 612.4 x10_4/ul
  Ret: 8.4%
  WBC: 82.5 x10_2/uL
  KIDNEY_L: 0.8 g
  KIDNEY_R: 0.9 g
  KIDNEY_TOTAL: 1.7 g
  LIVER: 8.3 g
  A/G: 0.9
  ALP: 1365.6 IU/L
  ALT: 36.4 IU/L
  AST: 69 IU/L
  BUN: 7.8 mg/dL
  CRE: 0.2 mg/dL
  Ca: 10.8 mg/dL
  Cl: 105.2 meq/L
  DBIL: 0.006 mg/dL
  GLC: 171.4 mg/dL
  IP: 10 mg/dL
  K: 3.7 meq/L
  LDH: 69.2 IU/L
  Na: 143.4 meq/L
  PL: 139.8 mg/dL
  RALB: 2.5 g/dL
  TBIL: 0.06 mg/dL
  TC: 80.4 mg/dL
  TG: 31.6 mg/dL
  TP: 5.3 g/dL
  gamma-GTP: 1.2 IU/L
9 h
  TERMINAL_BW: 195.3 g
  APTT: 16.7 s
  Bas: 0%
  Eos: 0.2%
  Fbg: 364.8 mg/dL
  Hb: 13 g/dL
  Ht: 40.1%
  Lym: 68.2%
  MCH: 21.4 pg
  MCHC: 32.4%
  MCV: 66.1 fL
  Mono: 2.2%
  Neu: 28.6%
  PT: 15.3 s
  Plat: 97.2 x10_4/uL
  RBC: 607 x10_4/ul
  Ret: 8.6%
  WBC: 61.4 x10_2/uL
  KIDNEY_L: 0.9 g
  KIDNEY_R: 0.9 g
  KIDNEY_TOTAL: 1.8 g
  LIVER: 8.4 g
  A/G: 0.9
  ALP: 1554.2 IU/L
  ALT: 38.8 IU/L
  AST: 71.4 IU/L
  BUN: 8.2 mg/dL
  CRE: 0.2 mg/dL
  Ca: 10.6 mg/dL
  Cl: 105.2 meq/L
  DBIL: 0.008 mg/dL
  GLC: 169.6 mg/dL
  IP: 10.5 mg/dL
  K: 3.7 meq/L
  LDH: 47.8 IU/L
  Na: 142.4 meq/L
  PL: 154.2 mg/dL
  RALB: 2.5 g/dL
  TBIL: 0.066 mg/dL
  TC: 84 mg/dL
  TG: 39.6 mg/dL
  TP: 5.4 g/dL
  gamma-GTP: 1 IU/L
24 h
  TERMINAL_BW: 211.6 g
  APTT: 17.8 s
  Bas: 0%
  Eos: 1%
  Fbg: 353.2 mg/dL
  Hb: 13.1 g/dL
  Ht: 40.4%
  Lym: 79.4%
  MCH: 21.5 pg
  MCHC: 32.4%
  MCV: 66.4 fL
  Mono: 3%
  Neu: 15.8%
  PT: 15.4 s
  Plat: 108.1 x10_4/uL
  RBC: 608.8 x10_4/ul
  Ret: 8.2%
  WBC: 71.1 x10_2/uL
  KIDNEY_L: 0.9 g
  KIDNEY_R: 0.9 g
  KIDNEY_TOTAL: 1.8 g
  LIVER: 10.2 g
  A/G: 0.8
  ALP: 1816.8 IU/L
  ALT: 43.2 IU/L
  AST: 70.8 IU/L
  BUN: 15.4 mg/dL
  CRE: 0.2 mg/dL
  Ca: 11.3 mg/dL
  Cl: 106 meq/L
  DBIL: 0.008 mg/dL
  GLC: 185.4 mg/dL
  IP: 8.7 mg/dL
  K: 4.5 meq/L
  LDH: 86.4 IU/L
  Na: 142.2 meq/L
  PL: 158.6 mg/dL
  RALB: 2.7 g/dL
  TBIL: 0.042 mg/dL
  TC: 81.8 mg/dL
  TG: 80.2 mg/dL
  TP: 5.8 g/dL
  gamma-GTP: 1 IU/L
